Values after ≈ are worked out from the molar mass of the structure shown. Like-named read-outs stand apart in the source and are kept apart here.
Columns and labels:
S. aureus ATCC 29213 = assay: MIC broth microdilution (NCCLS); assay type: cell-based, Staphylococcus aureus
Procedure: (§1) Minimal Inhibitory Concentration (MIC) Determination. Bacteria (primary strain panel, TABLE 1). Susceptibility tests were performed following the recommendations from the National Committee for Clinical Standards (NCCLS). The MICs were determined by a broth microdilution technique using a final volume of 100 μl of cation-adjusted Mueller Hinton Broth (MHBCA) and a bacterial inoculum of 10^5-10^6 Colony Forming Units (CFU)/ml. The inocula were verified and precisely determined by applying 10-μl drops of 10-fold dilutions onto Triptic Soy Agar plates. The CFU were counted after an incubation of 24 h at 35° C. Any experiment showing an inoculum that was more or less than 10^5-10^6 CFU/ml was rejected. Control antibiotics and test compounds were prepared at a concentration equivalent to 2-fold the highest desired final concentration. Compounds were then diluted directly in the 96-well microtiter plates by serial 2-fold dilutions using a multichannel pipette. Microtiter plates were incubated during 24 h at 35° C. and growth was recorded by using a microtiterplate reader at 650 nm as well as by visual observation. The MIC was defined as the lowest concentration of compound yielding no visible growth. […] Fastidious bacteria. The medium used for Listeria monocytogenes, Neisseria meningitidis, and Campylobacter jejuni was MHBCA containing 2% laked horse blood. The medium used for Haemophilus influenzae and Branhamella (Moraxella) catarrhalis was HTM as recommended by the NCCLS. Cultures of these fastidious bacteria were incubated at 35° C. in a 5% CO2 atmosphere. […] The medium used for Bacteroides fragilis was Wilkins Chalgren broth and growth was allowed under an anaerobic atmosphere at 35° C. for 48 hours.

S. aureus MRSA COL = assay: MIC broth microdilution (NCCLS); assay type: cell-based, Staphylococcus aureus
Procedure: as §1, with “hours. […]” for “hours.”

[1] = tested on: S. epidermidis ATCC 12228; assay: MIC broth microdilution (NCCLS); assay type: cell-based, Staphylococcus epidermidis
Procedure: as §1

[2] = tested on: S. saprophyticus ATCC 15305; assay: MIC broth microdilution (NCCLS); assay type: cell-based, Staphylococcus saprophyticus
Procedure: as §1

E. faecalis ATCC 29212 = assay: MIC broth microdilution (NCCLS); assay type: cell-based, Enterococcus faecalis
Procedure: as §1

E. faecium ATCC 35667 = assay: MIC broth microdilution (NCCLS); assay type: cell-based, Enterococcus faecium
Procedure: as §1

E. coli ATCC 25922 = assay: MIC broth microdilution (NCCLS); assay type: cell-based, Escherichia coli
Procedure: as §1

S. typhimurium ATCC14028 = assay: MIC broth microdilution (NCCLS); assay type: cell-based, Salmonella typhimurium; settings: Salmonella enterica; S. typhimurium ATCC14028; read-out: MIC
Procedure: as §1

A. baumannii ATCC 19606 = assay: MIC broth microdilution (NCCLS); assay type: cell-based, Acinetobacter baumannii
Procedure: as §1

[3] = tested on: Y. enterocolytica ATCC 23715; assay: MIC broth microdilution (NCCLS); assay type: cell-based, Yersinia enterocolytica
Procedure: as §1

M. smegmatis ATCC 19420 = assay: MIC broth microdilution (NCCLS), fastidious bacteria; assay type: cell-based, Mycobacterium smegmatis; settings: Mycolicibacterium smegmatis, ATCC19420, read after 48 hours
Procedure: as §1

E. faecium VanA = assay: MIC broth microdilution, antibiotic resistant strain panel; assay type: cell-based; settings: Enterococcus faecium
Procedure: as §1
(§2) Finally, compounds were also tested against populations of various clinical strains (antibiotic resistant strain panel, TABLE 1).

MRSA strain Sa211c = assay: as above; assay type: cell-based, Staphylococcus aureus; settings: multi-resistant MRSA strain Sa211c
Procedure: as §1, §2

MRSA strain Sa212c = assay: as above; assay type: cell-based, Staphylococcus aureus; settings: multi-resistant MRSA strain Sa212c
Procedure: as §1, §2

MRSA strain Sa220c = assay: as above; assay type: cell-based, Staphylococcus aureus; settings: multi-resistant MRSA strain Sa220c
Procedure: as §1, §2

MRSA strain Sa224c = assay: as above; assay type: cell-based, Staphylococcus aureus; settings: multi-resistant MRSA strain Sa224c
Procedure: as §1, §2

MRSA strain Sa228c = assay: as above; assay type: cell-based, Staphylococcus aureus; settings: multi-resistant MRSA strain Sa228c
Procedure: as §1, §2

MRSA strain Sa248c = assay: as above; assay type: cell-based, Staphylococcus aureus; settings: multi-resistant MRSA strain Sa248c
Procedure: as §1, §2

MRSA strain Sa249c = assay: as above; assay type: cell-based, Staphylococcus aureus; settings: multi-resistant MRSA strain Sa249c
Procedure: as §1, §2

MRSA strain Sa253c = assay: as above; assay type: cell-based, Staphylococcus aureus; settings: multi-resistant MRSA strain Sa253c
Procedure: as §1, §2

[4] = tested on: S. saprophyticus ATCC 15305; assay: Minimal Bactericidal Concentration (MBC); assay type: cell-based; settings: Staphylococcus saprophyticus, ATCC15305
Procedure: Minimal Bactericidal Concentration (MBC). After the microtiter plates were read for the determination of the MIC, a 10-μl sample of each clear well (at least 5 wells without visible growth) was applied onto TSA plates for viable counts determination.
Petri dishes were incubated at 35° C. for exactly 24 h and bacterial colonies were counted.

MRSA strain Sa234c = assay: MIC broth microdilution, antibiotic resistant strain panel; assay type: cell-based, Staphylococcus aureus; settings: multi-resistant MRSA strain Sa234c
Procedure: as §1, §2

[5] = Staphylococcus aureus, ATCC29213, S. aureus ATCC 29213, read-out: MIC
[6] = Staphylococcus aureus, MRSA, S. aureus MRSA COL, read-out: MIC
[7] = Staphylococcus epidermidis, ATCC12228, S. epidermidis ATCC 12228, read-out: MIC
[8] = Staphylococcus saprophyticus, ATCC15305, S. saprophyticus ATCC 15305, read-out: MIC
[9] = Enterococcus faecalis, ATCC29212, E. faecalis ATCC 29212, read-out: MIC
[10] = Enterococcus faecium, ATCC35667, E. faecium ATCC 35667, read-out: MIC
[11] = Staphylococcus aureus, read-out: MIC

Molecule: NC(=O)N/N=C/c1ccc([N+](=O)[O-])o1 [Nitrofurazone]
- MIC (S. aureus ATCC 29213; [5]): 16 µg/mL (≈ 80.8 µM)
- MIC (S. aureus MRSA COL; [6]): 8 to 16 µg/mL (≈ 40.4 to 80.8 µM)
- MIC [1, 7]: 8 µg/mL (≈ 40.4 µM)
- MIC [2, 8]: 8 µg/mL (≈ 40.4 µM)
- MIC (E. faecalis ATCC 29212; [9]): 64 µg/mL (≈ 323 µM)
- MIC (E. faecium ATCC 35667; E. faecium ATCC 35667): >64 µg/mL
- MIC (E. faecium ATCC 35667; [10]): 128 µg/mL (≈ 646 µM)
- MIC (E. coli ATCC 25922; Escherichia coli, ATCC25922, E. coli ATCC 25922 (Reference), read-out: MIC): 8 to 16 µg/mL (≈ 40.4 to 80.8 µM)
- MIC (S. typhimurium ATCC14028): 8 µg/mL (≈ 40.4 µM)
- MIC (A. baumannii ATCC 19606; Acinetobacter baumannii, ATCC19606, read-out: MIC): 32 µg/mL (≈ 162 µM)
- MIC ([3]; Yersinia, ATCC23715, read-out: MIC): 64 µg/mL (≈ 323 µM)
- MIC (M. smegmatis ATCC 19420): 64 µg/mL (≈ 323 µM)
- MIC (E. faecium VanA; multi-resistant E. faecium VanA, read-out: MIC): 64 µg/mL (≈ 323 µM)

Molecule: Cc1onc(-c2ccccc2)c1C(=O)N[C@@H]1C(=O)N2[C@@H]1SC(C)(C)[C@@H]2C(=O)O [Oxacillin]
- MIC (S. aureus ATCC 29213; [5]): 0.12 to 0.25 µg/mL (≈ 0.299 to 0.623 µM)
- MIC (S. aureus MRSA COL; Staphylococcus aureus, MRSA): > 128 µg/mL
- MIC (S. aureus MRSA COL; [6]): 512 µg/mL (≈ 1280 µM)
- MIC [1, 7]: 0.12 µg/mL (≈ 0.299 µM)
- MIC [2, 8]: 1 µg/mL (≈ 2.49 µM)
- MIC (E. faecalis ATCC 29212; [9]): 8 to 16 µg/mL (≈ 19.9 to 39.9 µM)
- MIC (E. faecium ATCC 35667; [10]): 32 µg/mL (≈ 79.7 µM)
- MIC (MRSA strain Sa211c; [11]): 16 to 32 µg/mL (≈ 39.9 to 79.7 µM)
- MIC (MRSA strain Sa212c; [11]): 16 µg/mL (≈ 39.9 µM)
- MIC (MRSA strain Sa220c; [11]): 8 to 16 µg/mL (≈ 19.9 to 39.9 µM)
- MIC (MRSA strain Sa224c; [11]): 32 to 64 µg/mL (≈ 79.7 to 159 µM)
- MIC (MRSA strain Sa228c; [11]): 128 µg/mL (≈ 319 µM)
- MIC (MRSA strain Sa248c; [11]): 512 µg/mL (≈ 1280 µM)
- MIC (MRSA strain Sa249c; [11]): 512 µg/mL (≈ 1280 µM)
- MIC (MRSA strain Sa253c; [11]): 1020 µg/mL (≈ 2550 µM)

Molecule: CN[C@H](CC(C)C)C(=O)N[C@H]1C(=O)N[C@@H](CC(N)=O)C(=O)N[C@H]2C(=O)N[C@H]3C(=O)N[C@H](C(=O)N[C@H](C(=O)O)c4cc(O)cc(O)c4-c4cc3ccc4O)[C@H](O)c3ccc(c(Cl)c3)Oc3cc2cc(c3O[C@@H]2O[C@H](CO)[C@@H](O)[C@H](O)[C@H]2O[C@H]2C[C@](C)(N)[C@H](O)[C@H](C)O2)Oc2ccc(cc2Cl)[C@H]1O [Vancomycin]
- MIC (S. aureus ATCC 29213; Staphylococcus aureus, ATCC29213): 0.5 to 2 µg/mL (≈ 0.345 to 1.38 µM)
- MIC (S. aureus MRSA COL; Staphylococcus aureus, MRSA): 1 to 2 µg/mL (≈ 0.69 to 1.38 µM)
- MIC ([1]; Staphylococcus epidermidis, ATCC12228): 1 to 2 µg/mL (≈ 0.69 to 1.38 µM)
- MIC ([2]; Staphylococcus saprophyticus, ATCC15305): 1 µg/mL (≈ 0.69 µM)
- MIC (E. faecalis ATCC 29212; Enterococcus faecalis, ATCC29212): 2 µg/mL (≈ 1.38 µM)
- MIC (E. faecium ATCC 35667; Enterococcus faecium, ATCC35667): 0.5 µg/mL (≈ 0.345 µM)
- MIC (E. faecium VanA): > 128 µg/mL
- MBC [4]: 1 µg/mL (≈ 0.69 µM)

Molecule: Gentamicin
- MIC (S. aureus ATCC 29213; S. aureus ATCC 29213): 0.5 to 2 µg/mL
- MIC (S. aureus MRSA COL; S. aureus MRSA COL): 0.5 µg/mL
- MIC ([1]; S. epidermidis ATCC 12228): 0.06 to 0.25 µg/mL
- MIC ([2]; S. saprophyticus ATCC 15305): 0.06 µg/mL
- MIC (E. faecalis ATCC 29212; E. faecalis ATCC 29212): 4 to 16 µg/mL
- MIC (E. faecium ATCC 35667; E. faecium ATCC 35667): 4 to 16 µg/mL
- MIC (E. coli ATCC 25922; E. coli ATCC 25922 (Reference)): 0.5 to 2 µg/mL
- MIC (A. baumannii ATCC 19606): 32 µg/mL
- MIC [3]: 2 µg/mL
- MIC (MRSA strain Sa211c): 1 µg/mL
- MIC (MRSA strain Sa212c): 0.25 µg/mL
- MIC (MRSA strain Sa220c): 0.5 µg/mL
- MIC (MRSA strain Sa224c): 0.25 µg/mL
- MIC (MRSA strain Sa228c): 32 µg/mL
- MIC (MRSA strain Sa234c): 1 µg/mL
- MIC (MRSA strain Sa248c): >128 µg/mL
- MIC (MRSA strain Sa249c): >128 µg/mL
- MIC (MRSA strain Sa253c): >128 µg/mL

Source: patent US7410974B2, “Halogenated Quinazolinyl nitrofurans as antibacterial agents” (Ulysses Pharmaceutical Products, Inc., priority 2003, dated 2008)
